According to patent publication US10526316B2, “Quinoxaline and pyridopyrazine derivatives as PI3Kβ inhibitors” (Janssen Pharmaceutica NV, priority 2015, dated 2020):
Like-named read-outs stand apart in the source and are kept apart here.

Experiments:
PI3Kβ = target: T1, PI3Kβ (Homo sapiens, UniProt P42338); experiment: Enzyme binding assay (KINOMEscan, DiscoveRx); details: PIK3Cβ_h, read-out: Kd PIK3Cβ_h
T1 construct: purchased DiscoveRx Corporation, San Diego (contract service, KINOMEscan)
Protocol: (§1) Enzyme Binding Assays (KINOMEscan®)
Kinase enzyme binding affinities of compounds disclosed herein were determined using the KINOMEscan technology performed by DiscoveRx Corporation, San Diego, Calif., USA (www.kinomescan.com). Table A reports the obtained Kd values (nM), with the Kd being the inhibitor binding constant: […]

PI3Kδ = target: T2, PI3Kδ (Homo sapiens, UniProt O00329); experiment: Enzyme binding assay (KINOMEscan, DiscoveRx); details: PIK3Cδ_h
T2 construct: purchased DiscoveRx Corporation, San Diego (contract service, KINOMEscan)
T2 sequence (O00329 1-1044): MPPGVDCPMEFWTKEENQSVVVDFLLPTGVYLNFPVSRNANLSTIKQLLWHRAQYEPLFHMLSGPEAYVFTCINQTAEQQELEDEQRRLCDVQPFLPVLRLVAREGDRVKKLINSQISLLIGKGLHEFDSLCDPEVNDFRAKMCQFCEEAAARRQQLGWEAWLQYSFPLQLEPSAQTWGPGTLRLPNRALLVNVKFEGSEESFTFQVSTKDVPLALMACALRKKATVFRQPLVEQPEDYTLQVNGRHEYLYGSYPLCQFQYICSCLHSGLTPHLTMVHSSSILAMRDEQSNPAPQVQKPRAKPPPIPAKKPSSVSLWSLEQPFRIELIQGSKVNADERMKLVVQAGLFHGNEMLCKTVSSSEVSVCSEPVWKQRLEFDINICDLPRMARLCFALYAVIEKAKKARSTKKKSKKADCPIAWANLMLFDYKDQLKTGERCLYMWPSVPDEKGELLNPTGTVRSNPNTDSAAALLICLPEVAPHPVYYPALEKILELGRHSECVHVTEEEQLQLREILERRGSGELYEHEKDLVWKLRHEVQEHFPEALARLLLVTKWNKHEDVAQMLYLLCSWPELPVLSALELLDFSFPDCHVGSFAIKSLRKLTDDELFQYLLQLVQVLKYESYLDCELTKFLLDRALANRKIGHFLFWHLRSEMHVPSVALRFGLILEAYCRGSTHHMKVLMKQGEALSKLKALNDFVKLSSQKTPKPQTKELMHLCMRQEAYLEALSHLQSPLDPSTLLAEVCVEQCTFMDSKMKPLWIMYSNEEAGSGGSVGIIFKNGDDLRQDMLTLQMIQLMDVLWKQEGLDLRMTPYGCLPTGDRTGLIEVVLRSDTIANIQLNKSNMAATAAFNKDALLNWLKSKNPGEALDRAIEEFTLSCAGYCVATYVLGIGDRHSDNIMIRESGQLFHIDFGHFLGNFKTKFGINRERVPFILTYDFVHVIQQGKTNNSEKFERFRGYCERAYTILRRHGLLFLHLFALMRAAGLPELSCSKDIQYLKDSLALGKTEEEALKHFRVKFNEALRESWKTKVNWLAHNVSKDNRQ
Protocol: as §1
(§2) Kinase enzyme binding affinities of compounds disclosed herein were determined using the KINOMEscan technology performed by DiscoveRx Corporation, San Diego, Calif., USA (www.kinomescan.com).

kinase enzymes [1] = target: T3, kinase enzymes (Homo sapiens, UniProt P42336); experiment: Enzyme binding assay (KINOMEscan, DiscoveRx), further kinases of Table A; details: PIK3Cα_h
T3 construct: purchased DiscoveRx Corporation, San Diego (contract service, KINOMEscan)
T3 sequence (P42336 whole entry): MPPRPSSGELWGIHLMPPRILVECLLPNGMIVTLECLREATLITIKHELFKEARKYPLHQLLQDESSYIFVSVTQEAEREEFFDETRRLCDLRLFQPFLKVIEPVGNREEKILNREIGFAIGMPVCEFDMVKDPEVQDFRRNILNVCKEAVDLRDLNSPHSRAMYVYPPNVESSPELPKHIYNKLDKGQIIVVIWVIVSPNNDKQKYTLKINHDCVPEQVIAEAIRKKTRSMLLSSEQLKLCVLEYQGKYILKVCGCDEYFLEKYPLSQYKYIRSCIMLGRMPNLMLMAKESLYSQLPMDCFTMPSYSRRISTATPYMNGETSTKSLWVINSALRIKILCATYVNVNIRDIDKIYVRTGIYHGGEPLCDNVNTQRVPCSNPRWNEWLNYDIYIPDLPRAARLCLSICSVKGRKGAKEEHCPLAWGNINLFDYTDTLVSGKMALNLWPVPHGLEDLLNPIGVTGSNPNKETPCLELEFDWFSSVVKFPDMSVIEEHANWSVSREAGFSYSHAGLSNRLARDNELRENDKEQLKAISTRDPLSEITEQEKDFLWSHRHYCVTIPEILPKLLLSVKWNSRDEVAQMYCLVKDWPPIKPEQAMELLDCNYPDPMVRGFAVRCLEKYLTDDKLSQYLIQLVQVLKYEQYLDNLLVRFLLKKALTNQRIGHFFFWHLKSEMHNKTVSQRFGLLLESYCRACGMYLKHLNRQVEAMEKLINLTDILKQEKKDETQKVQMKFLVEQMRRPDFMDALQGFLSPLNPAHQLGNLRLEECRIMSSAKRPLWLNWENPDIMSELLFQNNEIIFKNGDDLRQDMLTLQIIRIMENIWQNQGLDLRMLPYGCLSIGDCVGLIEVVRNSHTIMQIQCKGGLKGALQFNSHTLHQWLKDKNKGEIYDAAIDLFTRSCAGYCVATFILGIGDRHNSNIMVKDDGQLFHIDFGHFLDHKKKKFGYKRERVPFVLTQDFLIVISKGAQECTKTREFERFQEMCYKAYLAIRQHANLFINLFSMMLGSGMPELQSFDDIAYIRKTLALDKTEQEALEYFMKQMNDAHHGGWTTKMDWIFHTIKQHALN
Protocol: as §1, §2

kinase enzymes [2] = target: T4, kinase enzymes (Homo sapiens, UniProt P42345); experiment: as above; details: MTOR_h
T4 construct: purchased DiscoveRx Corporation, San Diego (contract service, KINOMEscan)
Protocol: as §1, §2

kinase enzymes [3] = target: T5, kinase enzymes (Homo sapiens, UniProt P48736); experiment: as above; details: PIK3Cγ_h
T5 construct: purchased DiscoveRx Corporation, San Diego (contract service, KINOMEscan)
T5 sequence (P48736 whole entry): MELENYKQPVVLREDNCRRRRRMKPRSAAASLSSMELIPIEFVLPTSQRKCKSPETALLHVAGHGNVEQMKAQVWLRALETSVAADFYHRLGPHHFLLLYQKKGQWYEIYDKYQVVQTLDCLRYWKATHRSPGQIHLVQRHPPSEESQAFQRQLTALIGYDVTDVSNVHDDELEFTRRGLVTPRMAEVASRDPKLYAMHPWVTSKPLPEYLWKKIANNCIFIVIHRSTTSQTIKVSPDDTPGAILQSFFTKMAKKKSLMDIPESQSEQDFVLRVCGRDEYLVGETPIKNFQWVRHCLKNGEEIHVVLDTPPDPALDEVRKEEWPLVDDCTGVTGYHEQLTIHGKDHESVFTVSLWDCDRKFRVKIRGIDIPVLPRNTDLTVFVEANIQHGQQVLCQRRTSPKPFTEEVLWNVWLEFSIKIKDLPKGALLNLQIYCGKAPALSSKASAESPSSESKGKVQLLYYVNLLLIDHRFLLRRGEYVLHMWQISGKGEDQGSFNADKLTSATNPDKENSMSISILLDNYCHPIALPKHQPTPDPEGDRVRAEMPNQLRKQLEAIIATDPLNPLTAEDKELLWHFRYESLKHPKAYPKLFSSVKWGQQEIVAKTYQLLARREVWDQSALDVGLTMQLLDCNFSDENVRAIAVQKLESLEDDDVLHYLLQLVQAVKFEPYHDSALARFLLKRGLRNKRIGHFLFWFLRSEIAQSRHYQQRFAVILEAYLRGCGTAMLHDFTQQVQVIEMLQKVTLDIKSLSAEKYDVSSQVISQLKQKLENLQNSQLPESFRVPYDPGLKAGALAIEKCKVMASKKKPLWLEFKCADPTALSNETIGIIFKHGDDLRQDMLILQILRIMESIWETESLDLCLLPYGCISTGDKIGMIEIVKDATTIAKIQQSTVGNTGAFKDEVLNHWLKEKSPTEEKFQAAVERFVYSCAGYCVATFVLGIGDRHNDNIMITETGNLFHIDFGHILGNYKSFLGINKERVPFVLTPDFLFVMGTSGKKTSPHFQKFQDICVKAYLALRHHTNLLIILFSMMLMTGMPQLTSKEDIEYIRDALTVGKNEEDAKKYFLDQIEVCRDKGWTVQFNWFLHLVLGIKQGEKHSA
Protocol: as §1, §2

[4] = system: Akt phosphorylated at Ser473 in PC-3 cells; experiment: Cellular assay: phosphorylation of Akt at Ser473 in PC-3 cells (MSD ELISA); format: cell-based; details: PC-3 cells, 60 min compound incubation, MSD ELISA, read-out: IC50 pAkt_S473
Protocol: (§3) Cellular activity of PI3KP inhibitors was determined by quantifying the phosphorylation of Akt in PC-3 cells. Akt phosphorylated at Ser473 and Thr308 were measured using an enzyme-linked immunosorbent assay (ELISA; Meso Scale Discovery (MSD), Gaithersburg. Md.) and specific primary antibodies from MSD.
(§4) On day 2, compound or DMSO (0.3%) was added and cells were further incubated for 60 min at 37° C. 5% CO2 in a total volume of 100 μl of medium.
(§5) The phosphoprotein assay was executed according to vendor instructions in the Phospho-Akt (Ser473) Assay Whole Cell Lysate Kit (MSD # K15100D-3) and the Phospho-Akt (Thr308) Assay Whole Cell Lysate Kit (MSD # K151DYD-3) using the lysis, blocking and wash buffer provided.
(§6) Briefly, at the end of the cell treatment period, media were removed by aspiration and adherent cells were lysed in 50 μl ice-cold lysis buffer. MSD plates are supplied pre-coated with capture antibodies for Phospho-Akt (Ser473 and Thr308). After blocking, lysates from tissue culture plates were added and plates were washed. Then, a solution containing the detection antibody (anti-total Akt conjugated with an electrochemiluminescent compound-MSD Sulfo-tag label) was added. The signals were detected using an MSD SECTOR Imager 6000 and are proportional to the phospho-Akt titres.
(§7) Data were processed. […] From these concentration-response curves, the IC50 values were calculated. Five concentrations were used for curve fitting.

[5] = system: Akt phosphorylated at Thr308 in PC-3 cells; experiment: Cellular assay: phosphorylation of Akt at Thr308 in PC-3 cells (MSD ELISA); format: cell-based; details: PC-3 cells, 60 min compound incubation, MSD ELISA, read-out: IC50 pAkt_Thr308
Protocol: as §3, §4, §5, §6, §7

T1 sequence (P42338 whole entry): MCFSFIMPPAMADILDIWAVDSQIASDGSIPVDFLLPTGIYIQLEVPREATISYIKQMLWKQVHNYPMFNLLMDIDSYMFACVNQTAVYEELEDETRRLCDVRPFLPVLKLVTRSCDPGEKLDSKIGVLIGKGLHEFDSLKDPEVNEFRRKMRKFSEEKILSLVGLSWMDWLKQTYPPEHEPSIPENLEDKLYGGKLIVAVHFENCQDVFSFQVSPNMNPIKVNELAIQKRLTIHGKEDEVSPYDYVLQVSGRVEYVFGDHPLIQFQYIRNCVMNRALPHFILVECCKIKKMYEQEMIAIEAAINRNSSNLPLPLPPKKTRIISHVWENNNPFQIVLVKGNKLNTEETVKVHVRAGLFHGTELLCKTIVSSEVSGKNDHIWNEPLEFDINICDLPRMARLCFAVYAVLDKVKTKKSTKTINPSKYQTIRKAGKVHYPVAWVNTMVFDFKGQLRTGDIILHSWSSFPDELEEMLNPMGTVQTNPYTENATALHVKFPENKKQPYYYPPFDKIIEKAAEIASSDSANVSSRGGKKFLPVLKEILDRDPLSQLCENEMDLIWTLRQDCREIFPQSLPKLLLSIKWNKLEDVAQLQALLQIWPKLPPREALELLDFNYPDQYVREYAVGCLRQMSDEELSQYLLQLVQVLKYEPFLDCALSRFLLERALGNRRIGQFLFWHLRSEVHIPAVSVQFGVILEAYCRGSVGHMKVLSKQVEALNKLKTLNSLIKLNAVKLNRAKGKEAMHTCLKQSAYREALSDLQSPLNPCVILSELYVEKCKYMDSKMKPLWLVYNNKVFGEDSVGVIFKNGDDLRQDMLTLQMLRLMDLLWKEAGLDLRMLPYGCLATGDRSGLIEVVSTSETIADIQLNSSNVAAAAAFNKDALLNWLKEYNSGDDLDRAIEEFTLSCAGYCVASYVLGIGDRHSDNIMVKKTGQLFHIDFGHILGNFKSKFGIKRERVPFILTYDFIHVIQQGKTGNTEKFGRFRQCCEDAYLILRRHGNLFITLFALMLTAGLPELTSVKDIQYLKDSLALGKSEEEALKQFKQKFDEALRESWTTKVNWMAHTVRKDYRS

Compound | Kd (PI3Kβ) | Kd (PI3Kδ) | Kd (kinase enzymes [1]) | Kd (kinase enzymes [2]) | Kd (kinase enzymes [3]) | IC50 ([4]; Homo sapiens, PC-3, 1 h) | IC50 ([5]; Homo sapiens, PC-3, 1 h) | IC50 [4] | IC50 [5]
CC(Oc1cc(F)cc(F)c1)c1cc(C(=O)N2CCC2)cc2ncc(N3CCO[C@H](CO)C3)nc12 (mixture of isomers) [Compound 81] | 30 nM | 2630 nM | 19100 nM | > 30200 nM | 29500 nM | ~490 nM | 219 nM | – | –
CC(Oc1cc(F)cc(F)c1)c1cc(C(=O)N(C)CCO)cc2ncc(N3CCOCC3)nc12 (racemic) [Compound 59] | 3 nM | 331 nM | 1200 nM | > 30200 nM | 10700 nM | 263 nM | 110 nM | – | –
CC(C)NCCNC(=O)c1cc(C(C)Oc2ccc(F)c(F)c2)c2nc(N3CCOCC3)cnc2c1 (racemic) [Compound 286] | 18 nM | 2040 nM | 7410 nM | > 30200 nM | 17000 nM | – | – | 398 nM | 245 nM
CC(Oc1cccc(F)c1)c1cc(C(=O)N(C)C)cc2ncc(N3CCOCC3)nc12 (racemic) [Compound 339] | 427 nM | 2460 nM | 5890 nM | 16200 nM | 9330 nM | – | – | > 513 nM | > 513 nM
CC(Oc1cc(F)cc(F)c1)c1cc(C(=O)N(C)C)cc2ncc(N3CCOCC3)nc12 (single isomer, unassigned) [Compound 5] | 2 nM | 225 nM | 1590 nM | 25100 nM | 7980 nM | – | – | 100 nM | 99 nM
CC(Oc1cc(F)cc(F)c1)c1cc(C(=O)N(C)C)cc2ncc(N3CCOCC3)nc12 (single isomer, unassigned) [Compound 6] | 1890 nM | 16900 nM | 26000 nM | > 30200 nM | > 30200 nM | – | – | > 513 nM | > 513 nM
CC(Nc1cc(F)cc(F)c1)c1cc(C(=O)N2CCOCC2)cc2ncc(N3CCOCC3)nc12 (single isomer, unassigned) [Compound 9] | 417 nM | 18200 nM | 27500 nM | > 30200 nM | > 30200 nM | – | – | > 513 nM | > 513 nM
CC(O)c1cc(C2CCCN2c2cc(F)cc(F)c2)c2nc(N3CCOCC3)cnc2c1 (single isomer, unassigned) [Compound 15] | 1 nM | 43 nM | 234 nM | > 30200 nM | 372 nM | – | – | 4 nM | 2 nM
C[C@@H]1CN(c2cnc3cc(C(=O)N(C)C)cc(C4CCCN4c4cccc(F)c4)c3n2)CCO1 (single isomer, unassigned) [Compound 29] | 1660 nM | 21900 nM | 10200 nM | 23400 nM | > 30200 nM | – | – | > 513 nM | > 513 nM
C[C@@H]1CN(c2cnc3cc(C(=O)N(C)C)cc(C4CCCN4c4cccc(F)c4)c3n2)CCO1 (single isomer, unassigned) [Compound 30] | 1 nM | 18 nM | 39 nM | 21900 nM | 407 nM | – | – | 5 nM | ~4 nM
CN1CCN(C(=O)c2cc(C3CCCN3c3cc(F)cc(F)c3)c3nc(N4CCOCC4)cnc3c2)CC1 (single isomer, unassigned) [Compound 58] | 9 nM | 912 nM | 2000 nM | > 30200 nM | 18600 nM | – | – | > 513 nM | 295 nM
CC(Oc1cc(F)cc(F)c1)c1cc(C(=O)N(C)CCO)cc2ncc(N3CCOCC3)nc12 (single isomer, unassigned) [Compound 60] | 490 nM | 15500 nM | 22900 nM | > 30200 nM | > 30200 nM | – | – | > 513 nM | > 513 nM
CC(Oc1cc(F)cc(F)c1)c1cc(C(=O)N(C)CCO)cc2ncc(N3CCOCC3)nc12 (single isomer, unassigned) [Compound 61] | 2 nM | 209 nM | 676 nM | > 30200 nM | 5250 nM | – | – | 182 nM | 123 nM
CC(Oc1cccc(F)c1F)c1cc(C(=O)N(C)C)cc2ncc(N3CCOCC3)nc12 (single isomer, unassigned) [Compound 73] | 9 nM | 282 nM | 2040 nM | > 30200 nM | 19500 nM | > 513 nM | 331 nM | – | –
CC(Oc1cccc(F)c1F)c1cc(C(=O)N(C)C)cc2ncc(N3CCOCC3)nc12 (single isomer, unassigned) [Compound 74] | 603 nM | 5620 nM | 8510 nM | 23400 nM | > 30200 nM | – | – | > 513 nM | > 513 nM
CC(Oc1cccc(F)c1)c1cc(CO)cc2ncc(N3CCOCC3)nc12 (single isomer, unassigned) [Compound 88] | 5 nM | 603 nM | 2140 nM | 14100 nM | 4680 nM | – | – | 178 nM | 89 nM
CC(Oc1cccc(F)c1)c1cc(CO)cc2ncc(N3CCOCC3)nc12 (single isomer, unassigned) [Compound 89] | 832 nM | 11700 nM | 7240 nM | 13500 nM | 9550 nM | – | – | > 513 nM | > 513 nM
CCN1CCN(C(=O)c2cc(C(C)Oc3cccc(F)c3)c3nc(N4CCOCC4)cnc3c2)CC1 (single isomer, unassigned) [Compound 91] | 10 nM | 1230 nM | 4470 nM | > 30200 nM | 21400 nM | > 513 nM | – | – | 234 nM
CCN1CCN(C(=O)c2cc(C(C)Oc3cccc(F)c3)c3nc(N4CCOCC4)cnc3c2)CC1 (single isomer, unassigned) [Compound 92] | 1020 nM | 16600 nM | 16200 nM | > 30200 nM | > 30200 nM | – | – | > 513 nM | > 513 nM
OC(CN1CCC1)c1cc(C2CCCN2c2cc(F)cc(F)c2)c2nc(N3CCOCC3)cnc2c1 (single isomer, unassigned) [Compound 95] | 0.5 nM | 178 nM | 295 nM | > 30200 nM | 1100 nM | – | – | 34 nM | 18 nM
